# Test results reported in article doi:10.1101/2024.10.18.619128v2 (biorxiv, 2024).
# Read-outs that look alike come from different tables or passages of the source.
# Key:
# [1] = test system: BT20; test: cells; settings: Homo sapiens, BT-20, 48 h, read-out: III / CEY1410
# [2] = test system: BT474; test: cells; settings: Homo sapiens, BT-474, 48 h
# [3] = test system: DU4475; test: cells; settings: Homo sapiens, DU-4475, 48 h, read-out: III / CEY1410
# [4] = test system: HCC1143; test: cells; settings: Homo sapiens, HCC1143, 48 h, read-out: III / CEY1410
# [5] = test system: HCC1419; test: cells; settings: Homo sapiens, HCC1419, 48 h
# [6] = test system: HCC1569; test: cells; settings: Homo sapiens, HCC1569, 48 h
# [7] = test system: HCC1937; test: cells; settings: Homo sapiens, HCC1937, 48 h, read-out: III / CEY1410
# [8] = test system: HCC1954; test: cells; settings: Homo sapiens, HCC1954, 48 h
# [9] = test system: HCC70; test: cells; settings: Homo sapiens, HCC70, 48 h, read-out: III / CEY1410
# [10] = test system: HS578T; test: cells; settings: Homo sapiens, Hs-578T, 48 h, read-out: III / CEY1410
# [11] = test system: MCF7; test: cells; settings: Homo sapiens, MCF7, 48 h
# [12] = test system: MDAMB231; test: cells; settings: Homo sapiens, MDA-MB-231, 48 h, read-out: III / CEY1410
# [13] = test system: MDAMB361; test: cells; settings: Homo sapiens, MDA-MB-361, 48 h, read-out: III / CEY1410
# [14] = test system: MDAMB436; test: cells; settings: Homo sapiens, MDA-MB-436, 48 h
# [15] = test system: MDAMB453; test: cells; settings: Homo sapiens, MDA-MB-453, 48 h, read-out: III / CEY1410
# [16] = test system: MDAMB468; test: cells; settings: Homo sapiens, MDA-MB-468, 48 h, read-out: III / CEY1410
# [17] = test system: SKBR3; test: cells; settings: Homo sapiens, SK-BR-3, 48 h, read-out: III / CEY1410
# [18] = test system: T47D; test: cells; settings: Homo sapiens, T47D, 48 h, read-out: III / CEY1410
# [19] = molecular target: ALDH1A3 (Homo sapiens, UniProt P47895); test: HPLC retinaldehyde dehydrogenase assay; type: biochemical
# Sequence of ALDH1A3 (P47895 whole entry): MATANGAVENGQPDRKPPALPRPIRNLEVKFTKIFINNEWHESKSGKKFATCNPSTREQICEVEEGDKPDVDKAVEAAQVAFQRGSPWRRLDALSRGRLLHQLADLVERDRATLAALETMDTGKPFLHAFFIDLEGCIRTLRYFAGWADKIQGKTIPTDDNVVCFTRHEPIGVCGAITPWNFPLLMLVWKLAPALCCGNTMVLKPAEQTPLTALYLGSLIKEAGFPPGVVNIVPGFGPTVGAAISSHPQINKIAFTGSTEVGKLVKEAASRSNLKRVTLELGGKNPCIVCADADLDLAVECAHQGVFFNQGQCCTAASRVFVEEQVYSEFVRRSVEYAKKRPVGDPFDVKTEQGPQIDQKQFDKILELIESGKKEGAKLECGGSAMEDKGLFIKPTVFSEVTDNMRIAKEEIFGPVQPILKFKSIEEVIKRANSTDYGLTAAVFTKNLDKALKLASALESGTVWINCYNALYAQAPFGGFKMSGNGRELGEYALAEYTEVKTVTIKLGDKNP
# [20] = molecular target: ALDH1A2 (Homo sapiens, UniProt O94788); test: HPLC retinaldehyde dehydrogenase assay; type: biochemical
# Sequence of ALDH1A2 (O94788 whole entry): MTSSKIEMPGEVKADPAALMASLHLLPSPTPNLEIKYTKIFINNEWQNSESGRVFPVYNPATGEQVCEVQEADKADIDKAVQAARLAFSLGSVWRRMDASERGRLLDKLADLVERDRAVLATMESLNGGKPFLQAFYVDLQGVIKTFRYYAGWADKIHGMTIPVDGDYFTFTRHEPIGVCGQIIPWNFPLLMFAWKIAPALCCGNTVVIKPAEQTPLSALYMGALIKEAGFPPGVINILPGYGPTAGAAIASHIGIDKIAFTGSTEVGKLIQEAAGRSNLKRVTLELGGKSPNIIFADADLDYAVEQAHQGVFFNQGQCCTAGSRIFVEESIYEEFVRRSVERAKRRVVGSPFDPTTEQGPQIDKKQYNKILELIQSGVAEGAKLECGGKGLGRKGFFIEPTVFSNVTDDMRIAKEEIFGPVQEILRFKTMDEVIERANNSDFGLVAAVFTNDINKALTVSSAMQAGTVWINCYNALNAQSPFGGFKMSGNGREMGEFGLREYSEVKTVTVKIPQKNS
# [21] = molecular target: ALDH1A1 (Homo sapiens, UniProt P00352); test: HPLC retinaldehyde dehydrogenase assay; type: biochemical
# Sequence of ALDH1A1 (P00352 whole entry): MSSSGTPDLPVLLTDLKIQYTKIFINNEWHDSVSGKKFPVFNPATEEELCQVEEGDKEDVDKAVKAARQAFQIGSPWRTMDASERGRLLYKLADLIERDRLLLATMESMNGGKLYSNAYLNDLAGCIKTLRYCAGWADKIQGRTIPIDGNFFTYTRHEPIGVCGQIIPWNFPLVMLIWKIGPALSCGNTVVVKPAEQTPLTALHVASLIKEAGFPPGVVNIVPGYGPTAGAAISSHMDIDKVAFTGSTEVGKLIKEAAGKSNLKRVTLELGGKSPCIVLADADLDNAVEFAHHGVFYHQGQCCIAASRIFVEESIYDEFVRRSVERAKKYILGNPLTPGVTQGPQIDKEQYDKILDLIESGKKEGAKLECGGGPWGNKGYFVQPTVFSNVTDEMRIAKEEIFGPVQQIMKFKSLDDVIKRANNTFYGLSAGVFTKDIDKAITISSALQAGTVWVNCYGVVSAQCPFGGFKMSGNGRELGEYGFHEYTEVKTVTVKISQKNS
# [22] = test system: MAXFHER 1162; test: cells; settings: read-out: DIMATE
# [23] = test system: MAXFHER 2690; test: cells; settings: read-out: DIMATE
# [24] = test system: MAXFHER 4035; test: cells; settings: read-out: DIMATE
# [25] = test system: MAXFHER BR64; test: cells; settings: read-out: DIMATE
# [26] = test system: MAXFTN 1384; test: cells; settings: read-out: DIMATE
# [27] = test system: MAXFTN 2990; test: cells; settings: read-out: DIMATE
# [28] = test system: MAXFTN 401; test: cells; settings: read-out: DIMATE
# [29] = test system: MAXFTN 449; test: cells; settings: read-out: DIMATE
# [30] = test system: MAXFTN 508; test: cells; settings: read-out: DIMATE
# [31] = test system: MAXFTN BR120; test: cells; settings: read-out: DIMATE
# [32] = molecular target: ALDH3A1 (Homo sapiens, UniProt P30838); test: fluorimetric NADPH assay, global inhibition fit; type: biochemical; settings: non-competitive; 4-nitrobenzaldehyde substrate, 1 mM NADP+, 37 °C, pH 7.2
# Sequence of ALDH3A1 (P30838 whole entry): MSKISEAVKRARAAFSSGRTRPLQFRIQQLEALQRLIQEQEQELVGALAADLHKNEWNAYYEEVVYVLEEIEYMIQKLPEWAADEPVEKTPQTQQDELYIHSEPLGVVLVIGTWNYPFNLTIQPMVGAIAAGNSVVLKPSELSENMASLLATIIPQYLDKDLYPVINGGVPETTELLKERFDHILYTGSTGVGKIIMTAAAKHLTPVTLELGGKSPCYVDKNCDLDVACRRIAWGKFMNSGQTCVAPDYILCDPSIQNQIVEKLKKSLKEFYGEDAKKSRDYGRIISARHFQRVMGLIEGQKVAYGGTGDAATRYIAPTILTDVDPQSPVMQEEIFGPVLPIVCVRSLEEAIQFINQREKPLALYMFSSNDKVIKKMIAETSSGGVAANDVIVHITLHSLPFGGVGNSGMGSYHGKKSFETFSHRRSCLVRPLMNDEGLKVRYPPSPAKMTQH
compound,measurement,setting,value
CN(C)C(C)(C)C#CC(=O)O [CEY1410],GI50,[1],> 30 µM
same,GI50,[2]; read-out: III / CEY1410,> 30 µM
same,GI50,[3],> 30 µM
same,GI50,[4],> 30 µM
same,GI50,[5]; read-out: III / CEY1410,> 30 µM
same,GI50,[6]; read-out: III / CEY1410,> 30 µM
same,GI50,[7],> 30 µM
same,GI50,[8]; read-out: III / CEY1410,> 30 µM
same,GI50,[9],> 30 µM
same,GI50,[10],> 30 µM
same,GI50,[11]; read-out: III / CEY1410,> 30 µM
same,GI50,[12],> 30 µM
same,GI50,[13],> 30 µM
same,GI50,[14]; read-out: III / CEY1410,> 30 µM
same,GI50,[15],> 30 µM
same,GI50,[16],> 30 µM
same,GI50,[17],> 30 µM
same,GI50,[18],> 30 µM
"CSC(=O)C#CC(C)(C)N(C)C [DIMATE, 4-dimethylamino-4-methyl-pent-2-ynthioic acid-S-methyl ester]",IC50,[19],5.7 ± 0.5 µM
same,IC50,[20],6.4 ± 0.9 µM
same,IC50,[21],25 ± 2 µM
same,GI50,[2]; read-out: I / DIMATE,3 µM
same,GI50,[5]; read-out: I / DIMATE,7.9 µM
same,GI50,[6]; read-out: I / DIMATE,5 µM
same,GI50,[8]; read-out: I / DIMATE,> 30 µM
same,GI50,[11]; read-out: I / DIMATE,10.4 µM
same,GI50,[14]; read-out: I / DIMATE,3.9 µM
same,GI50,[22],1.42 µM
same,GI50,[23],2.65 µM
same,GI50,[24],2.55 µM
same,GI50,[25],1.05 µM
same,GI50,[26],7.32 µM
same,GI50,[27],4.29 µM
same,GI50,[28],0.52 µM
same,GI50,[29],0.46 µM
same,GI50,[30],1.11 µM
same,GI50,[31],4.06 µM
ABD0171,Ki,[32],233 ± 16 µM
